Reference: patent US4342751A (priority 1981, dated 1982)
Like-named read-outs stand apart in the source and are kept apart here. Numbered stars: 1 amine (or outer) side, 2 acyl side, 3 side chain; on linkers, the order of the positions; unused ones are H or OH. Square brackets hold non-standard residues; d marks the D form. Peptide text beside a SMILES is read from it. X1 = CCC(N[*:1])C(C)C(=O)O[C@H](C(=O)[*:2])[C@@H](C)CC; X2 = C[C@H](N[*:1])C(=O)C(C)(C)C(=O)[*:2]; NMeY = CN[C@@H](Cc1ccc(O)cc1)C(=O)O; NMeI = CC[C@H](C)[C@H](NC)C(=O)O; NMeV = CN[C@H](C(=O)O)C(C)C

Tests used:
[1] = swimmer's itch; Mynderse et al., Science 196, 538-540 (1977); cited from earlier work
Aphanomyces euteiches = experiment: In vitro agar-dilution test; assay type: cell-based; set-up: Zone of Growth: unit not given beside the values; details: for Zone of Growth: control zone 29
Protocol: (§1) In these tests 100× solutions of majusculamide C in 95% aqueous ethanol were used. Majusculamide C solution (0.1 ml) and melted agar (9.9 ml) at 50° C. were mixed. An inoculum plug (6-mm diameter) was placed in the center of each plate; the radial growth of the colony was measured. Zone of growth was measured from the edge of the plug to the edge of the colony.

Phytophthora infestans [2] = assay type: in vivo; set-up: key to Disease Control rating, Tomato Late Blight: 1=severe disease; 5=no disease; details: for Disease Control rating, Tomato Late Blight: 1-5 scale, average of two replicates
Phytophthora infestans [3] = assay type: cell-based; details: for Zone of Growth: control zone 12
Pythium aphanidermatum = experiment: In vitro agar-dilution test; assay type: cell-based; set-up: Zone of Growth: unit not given here
Protocol: as §1

[4] = test system: Phytophthora capsici Ridomil-resistant strain; experiment: In vitro agar-dilution test, Ridomil-resistant strain; assay type: cell-based; details: for Zone of Growth: control zone 28
[5] = test system: Pythium ultimum Ridomil-sensitive strain; experiment: In vitro agar-dilution test, Ridomil-sensitive strain; assay type: cell-based; details: for Zone of Growth: control zone 39
Solubility in solvents = assay type: physicochemical
[6] = test system: Pythium ultimum Ridomil-resistant strain; experiment: In vitro agar-dilution test, Ridomil-resistant strain; assay type: cell-based; details: for Zone of Growth: control zone 39
Rhizoctonia solani = experiment: In vitro agar-dilution test; assay type: cell-based; details: for Percent Inhibition / Zone of Growth: Table 5; for Zone of Growth: control zone 27
Protocol: as §1

Sclerotinia homoeocarpa = experiment: In vitro agar-dilution test; assay type: cell-based; details: for Percent Inhibition / Zone of Growth: Table 5; for Zone of Growth: control zone 23
Protocol: as §1

[7] = test system: Tomato leaves (C. V. Rutgers); details: for Phytotoxicity rating, tomato leaves: average of two replicates
[8] = test system: Phytophthora capsici Ridomil-Sensitive strain; experiment: In vitro agar-dilution test, Ridomil-sensitive strain; assay type: cell-based; details: for Zone of Growth: control zone 27
[9] = calculated from Table 7 results
[10] = 0.1 ppm, Table 7 experiment, control zone 32
[11] = 1.0 ppm, Table 7 experiment, control zone 32
[12] = calculated from Table 5 results
[13] = calculated from Table 9 results

## CO[C@@H](CC[C@H](C)[C@H]1O[C@@]23C[C@H](OC(=O)C[C@H]([C@@H](C)O)OC(=O)C[C@](O)(O2)[C@H](C)CC3(C)C)[C@@H]1C)c1cccc(O)c1 [debromoaplysiatoxin]
[1]
  Contact dermatitis: causes a severe contact dermatitis

## CCC1NC(=O)[C@H](C)NC(=O)C(C)(C)C(=O)[C@H](C)NC(=O)[C@H](Cc2ccc(OC)cc2)N(C)C(=O)[C@H](C(C)C)N(C)C(=O)CNC(=O)[C@H]([C@@H](C)CC)N(C)C(=O)CNC(=O)[C@H]([C@@H](C)CC)OC(=O)C1C (some centres unmarked) [Majusculamide C, majusculamide C] (cyclo(A[X1]G[NMeI]G[NMeV][NMeY](Me)[X2]))
Aphanomyces euteiches; 0.01 ppm
  Percent Inhibition: 7%
  Zone of Growth: 27
Aphanomyces euteiches; 0.1 ppm
  Percent Inhibition: 7%
  Zone of Growth: 27
Aphanomyces euteiches; 1.0 ppm
  Percent Inhibition: 29%
  Zone of Growth: 20.5
Aphanomyces euteiches; 10.0 ppm
  Percent Inhibition: 88%
  Zone of Growth: 3.5
Aphanomyces euteiches; [9]
  ED50: 2.1 ppm
Phytophthora infestans [2]; 6.25 ppm foliar spray
  Disease Control rating, Tomato Late Blight: 5
Phytophthora infestans [2]; 25 ppm foliar spray
  Disease Control rating, Tomato Late Blight: 5
Phytophthora infestans [2]; 100 ppm foliar spray
  Disease Control rating, Tomato Late Blight: 5
Phytophthora infestans [2]; 400 ppm foliar spray
  Disease Control rating, Tomato Late Blight: 5
Phytophthora infestans [2]; suitable tests, not specified, tomato late blight
  Control of fungus: control
Phytophthora infestans [2]; summary statement
  In vivo effectiveness against tomato late blight: effective
Phytophthora infestans [3]; 0.01 ppm
  Percent Inhibition: 17%
  Zone of Growth: 10
Phytophthora infestans [3]; 0.1 ppm
  Percent Inhibition: 42%
  Zone of Growth: 7
Phytophthora infestans [3]; 1.0 ppm
  Percent Inhibition: 46%
  Zone of Growth: 6.5
Phytophthora infestans [3]; 10.0 ppm
  Percent Inhibition: 100%
  Zone of Growth: 0
Phytophthora infestans [3]; [9]
  ED50: 1.07 ppm
Pythium aphanidermatum; 0.01 ppm, Table 7 experiment
  Percent Inhibition: 6%
Pythium aphanidermatum; 0.01 ppm, Table 7 experiment, control zone 32
  Zone of Growth: 30
Pythium aphanidermatum; 0.1 ppm, Table 7 experiment
  Percent Inhibition: 62%
Pythium aphanidermatum; [10]
  Zone of Growth: 12
Pythium aphanidermatum; 1 ppm, Table 5 experiment
  Percent Inhibition: 97%
Pythium aphanidermatum; 1 ppm, Table 5 experiment, control zone 28
  Zone of Growth: 1
Pythium aphanidermatum; 1.0 ppm, Table 7 experiment
  Percent Inhibition: 95%
Pythium aphanidermatum; [11]
  Zone of Growth: 1.5
Pythium aphanidermatum; 10 ppm, Table 5 experiment
  Percent Inhibition: 100%
Pythium aphanidermatum; 10 ppm, Table 5 experiment, control zone 28
  Zone of Growth: 0
Pythium aphanidermatum; 10.0 ppm, Table 7 experiment
  Percent Inhibition: 100%
Pythium aphanidermatum; 10.0 ppm, Table 7 experiment, control zone 32
  Zone of Growth: 0
Pythium aphanidermatum; [12]
  ED50 (effective dose to achieve 50% inhibition): < 1 ppm
Pythium aphanidermatum; [9]
  ED50: 0.07 ppm
[4]; 0.1 ppm
  Percent Inhibition: 48%
  Zone of Growth: 14.5
[4]; 1 ppm
  Percent Inhibition: 84%
  Zone of Growth: 4.5
[4]; 10 ppm
  Percent Inhibition: 98%
  Zone of Growth: 0.5
[4]; [13]
  ED50: 0.25 ppm
[5]; 0.1 ppm
  Percent Inhibition: 53%
  Zone of Growth: 18.5
[5]; 1 ppm
  Percent Inhibition: 88%
  Zone of Growth: 4.5
[5]; 10 ppm
  Percent Inhibition: 100%
  Zone of Growth: 0
[5]; [13]
  ED50: < 0.1 ppm
Solubility in solvents; methanol, dichloromethane, and acetone
  Solubility in organic solvents: soluble
Solubility in solvents; water
  Solubility in water: not soluble
[6]; 0.1 ppm
  Percent Inhibition: 60%
  Zone of Growth: 15.5
[6]; 1 ppm
  Percent Inhibition: 91%
  Zone of Growth: 3.5
[6]; 10 ppm
  Growth observation (footnote b): No growth on plug
  Percent Inhibition: 100%
  Zone of Growth: 0
[6]; [13]
  ED50: < 0.5 ppm
Rhizoctonia solani; 1 ppm
  Percent Inhibition: 30%
  Zone of Growth: 19
Rhizoctonia solani; 10 ppm
  Percent Inhibition: 63%
  Zone of Growth: 10
Rhizoctonia solani; [12]
  ED50 (effective dose to achieve 50% inhibition): 4 ppm
Rhizoctonia solani; suitable tests, not specified, Rhizoctonia damping-off
  Control of fungus: control
Sclerotinia homoeocarpa; 1 ppm
  Percent Inhibition: 26%
  Zone of Growth: 17
Sclerotinia homoeocarpa; 10 ppm
  Percent Inhibition: 30%
  Zone of Growth: 16
Sclerotinia homoeocarpa; [12]
  ED50 (effective dose to achieve 50% inhibition): > 10 ppm
[7]; 6.25 ppm foliar spray
  Phytotoxicity rating, tomato leaves: 0
[7]; 25 ppm foliar spray
  Phytotoxicity rating, tomato leaves: 0
[7]; 100 ppm foliar spray
  Phytotoxicity rating, tomato leaves: 3.5
[7]; 400 and 100 ppm foliar spray
  Phytotoxicity observation, tomato leaves (footnote b): Evidence of chlorosis
[7]; 400 ppm foliar spray
  Phytotoxicity rating, tomato leaves: 4
[8]; 0.1 ppm
  Percent Inhibition: 46%
  Zone of Growth: 14.5
[8]; 1 ppm
  Percent Inhibition: 74%
  Zone of Growth: 7
[8]; 10 ppm
  Percent Inhibition: 100%
  Zone of Growth: 0
[8]; [13]
  ED50: 0.45 ppm

## COCC(=O)N(c1c(C)cccc1C)C(C)C(=O)OC (centres unmarked) [Ridomil (tech.), reference compound]
Aphanomyces euteiches; 0.1 ppm
  Percent Inhibition: 7%
  Zone of Growth: 27
Aphanomyces euteiches; 1.0 ppm
  Percent Inhibition: 3%
  Zone of Growth: 28
Phytophthora infestans [3]; 0.1 ppm
  Percent Inhibition: 50%
  Zone of Growth: 6
Phytophthora infestans [3]; 1.0 ppm
  Percent Inhibition: 83%
  Zone of Growth: 2
Pythium aphanidermatum; 0.1 ppm, Table 7 experiment
  Percent Inhibition: 34%
Pythium aphanidermatum; [10]
  Zone of Growth: 21
Pythium aphanidermatum; 1.0 ppm, Table 7 experiment
  Percent Inhibition: 94%
Pythium aphanidermatum; [11]
  Zone of Growth: 2
